The text below walks through data of patent US20230123334A1, “AMINO LIPID COMPOUND, PREPARATION METHOD THEREFOR, AND APPLICATION THEREOF” (SHENZHEN SHENXIN BIOTECHNOLOGY CO., LTD., priority 2020, published 2023).

SMILES strings stand for the structures.

In test [1] the test system is HEK293 cells. In words: Preliminary screening as DNA vectors, GFP transfection of HEK293 cells. The note with it: HEK293 cells; lipid/DOPE liposome with 75 ng plasmid DNA (psin-EGFP-IRES-Puro); number of cells expressing GFP divided by total number of nuclei (Hoechst). The class given is cell-based. The method, boiled down:
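First, amino lipid and DOPE were vortexed in sodium acetate buffer (pH 5.6) to form liposomes. Next, these were held with 75 ng EGFP plasmid at room temperature for 30 min. Finally, HEK293 cells were added, cultured at 37° C., Hoechst-stained, and GFP+/total nuclei scored by imaging.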

Test [2] has as its system HEK293 cells. In words: Preliminary screening as mRNA vectors, EGFP mRNA transfection of HEK293 cells. The class given is cell-based. The note with it: HEK293 cells, 96-well plates, EGFP mRNA 50 ng per well; percentage of GFP fluorescent cells relative to total number of cells (Hoechst). The essentials:
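Screening format: EGFP mRNA transfection (50 ng/well) into HEK293 in 10% FBS-supplemented DMEM. Percent green fluorescent cells, normalised to Hoechst nuclear count, gave the value; Lipofectamine2000 was the reference transfectant.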

Regarding `CCCCCCCCCCCCCCCCSc1nc(NCCCN(C)C)nc(SCCCCCCCCCCCC)n1` [Compound S12S16D6], in test [1], the “Absolute DNA transfection efficiency in HEK293 cells” value (shortened to “Absolute DNA transfection efficiency”) came to 2.7%. Moreover, the “Absolute mRNA transfection efficiency in HEK293 cells” value (“Absolute mRNA transfection efficiency” below) in test [2] is reported as 1.2%.
On to `CCCCCCCCCCCCCCCCSc1nc(NCCN(CC)CC)nc(SCCCCCCCCCCCC)n1` [Compound S12S16D7], for which the “Absolute DNA transfection efficiency” value in test [1] was found to be 0.7%. For the same compound, in test [2], the “Absolute mRNA transfection efficiency” value worked out at 0.0%.
On to `CCCCCCCCCCCCCCCCSc1nc(NCCCN2CCOCC2)nc(SCCCCCCCCCCCC)n1` [Compound S12S16D8], for which, in test [1], the “Absolute DNA transfection efficiency” value came out at 0.2%. Besides, in test [2], the “Absolute mRNA transfection efficiency” value was determined as 0.0%.
In the case of `CCCCCCCCCCCCCCCCSc1nc(NCCCN2CCN(C)CC2)nc(SCCCCCCCCCCCC)n1` [Compound S12S16D9], in test [1], the “Absolute DNA transfection efficiency” value was 0.5%. Moreover, the “Absolute mRNA transfection efficiency” value in test [2] is given as 0.0%.
On to `CCCCCCCCCCCCCCCCSc1nc(NCC2CCN(C)CC2)nc(SCCCCCCCCCCCC)n1` [Compound S12S16D10], for which the “Absolute DNA transfection efficiency” value in test [1] came to 7.3%. Moreover, the “Absolute mRNA transfection efficiency” value in test [2] is recorded as 13.2%.
For `CCCCCCCCCCCCCCCCCCSc1nc(NCCN(C)C)nc(SCCCCCCCCCCCC)n1` [Compound S12S18D1], in test [1], the “Absolute DNA transfection efficiency” value is reported as 0.0%. The “Absolute mRNA transfection efficiency” value in test [2] is reported as 0.0%.
As to `CCCCCCCCCCCCCCCCCCSc1nc(NCCN2CCOCC2)nc(SCCCCCCCCCCCC)n1` [Compound S12S18D2], the “Absolute DNA transfection efficiency” value in test [1] amounted to 0.0%. Besides, in test [2], the “Absolute mRNA transfection efficiency” value is given as 0.0%.
With `CCCCCCCCCCCCCCCCCCSc1nc(NCCN2CCCC2)nc(SCCCCCCCCCCCC)n1` [Compound S12S18D3], the “Absolute DNA transfection efficiency” value in test [1] came out at 2.1%. Moreover, in test [2], the “Absolute mRNA transfection efficiency” value is on record as 0.2%.
Regarding `CCCCCCCCCCCCCCCCCCSc1nc(NCCN2CCCCC2)nc(SCCCCCCCCCCCC)n1` [Compound S12S18D4], the “Absolute DNA transfection efficiency” value in test [1] is listed as 2.6%. Moreover, the “Absolute mRNA transfection efficiency” value in test [2] was 5.1%.
For the compound `CCCCCCCCCCCCCCCCCCSc1nc(NCCN2CCN(C)CC2)nc(SCCCCCCCCCCCC)n1` [Compound S12S18D5], the “Absolute DNA transfection efficiency” value in test [1] is 0.7%. In test [2], the “Absolute mRNA transfection efficiency” value stood at 0.0%.
With `CCCCCCCCCCCCCCCCCCSc1nc(NCCCN(C)C)nc(SCCCCCCCCCCCC)n1` [Compound S12S18D6], the “Absolute DNA transfection efficiency” value in test [1] is given as 1.0%. Further, the “Absolute mRNA transfection efficiency” value in test [2] is on record as 0.1%.
For the compound `CCCCCCCCCCCCCCCCCCSc1nc(NCCN(CC)CC)nc(SCCCCCCCCCCCC)n1` [Compound S12S18D7], in test [1], the “Absolute DNA transfection efficiency” value was determined as 0.7%. Besides, the “Absolute mRNA transfection efficiency” value in test [2] is reported as 0.0%.
Regarding `CCCCCCCCCCCCCCCCCCSc1nc(NCCCN2CCOCC2)nc(SCCCCCCCCCCCC)n1` [Compound S12S18D8], in test [1], the “Absolute DNA transfection efficiency” value turned out to be 0.4%. For the same compound, the “Absolute mRNA transfection efficiency” value in test [2] came to 0.0%.
For the compound `CCCCCCCCCCCCCCCCCCSc1nc(NCCCN2CCN(C)CC2)nc(SCCCCCCCCCCCC)n1` [Compound S12S18D9], the “Absolute DNA transfection efficiency” value in test [1] was 1.0%. Further, the “Absolute mRNA transfection efficiency” value in test [2] came out at 0.0%.
As to `CCCCCCCCCCCCCCCCCCSc1nc(NCC2CCN(C)CC2)nc(SCCCCCCCCCCCC)n1` [Compound S12S18D10], the “Absolute DNA transfection efficiency” value in test [1] came to 7.5%. For the same compound, in test [2], the “Absolute mRNA transfection efficiency” value amounted to 7.7%.
Take `CCCCCCCCCCCCCCSc1nc(NCCN(C)C)nc(SCCCCCCCCCCCCCC)n1` [Compound S14S14D1]: the “Absolute DNA transfection efficiency” value in test [1] is 0.1%. In test [2], the “Absolute mRNA transfection efficiency” value is 0.0%.
For the compound `CCCCCCCCCCCCCCSc1nc(NCCN2CCOCC2)nc(SCCCCCCCCCCCCCC)n1` [Compound S14S14D2], the “Absolute DNA transfection efficiency” value in test [1] was 0.0%. In addition, the “Absolute mRNA transfection efficiency” value in test [2] came to 0.0%.
As for `CCCCCCCCCCCCCCSc1nc(NCCN2CCCC2)nc(SCCCCCCCCCCCCCC)n1` [Compound S14S14D3], the “Absolute DNA transfection efficiency” value in test [1] amounted to 0.2%. Besides, the “Absolute mRNA transfection efficiency” value in test [2] is on record as 0.1%.
With `CCCCCCCCCCCCCCSc1nc(NCCN2CCCCC2)nc(SCCCCCCCCCCCCCC)n1` [Compound S14S14D4], the “Absolute DNA transfection efficiency” value in test [1] turned out to be 0.7%. For the same compound, the “Absolute mRNA transfection efficiency” value in test [2] came out at 0.8%.
Take `CCCCCCCCCCCCCCSc1nc(NCCN2CCN(C)CC2)nc(SCCCCCCCCCCCCCC)n1` [Compound S14S14D5]: the “Absolute DNA transfection efficiency” value in test [1] came out at 0.0%. In addition, in test [2], the “Absolute mRNA transfection efficiency” value was 0.0%.
For `CCCCCCCCCCCCCCSc1nc(NCCCN(C)C)nc(SCCCCCCCCCCCCCC)n1` [Compound S14S14D6], in test [1], the “Absolute DNA transfection efficiency” value amounted to 0.2%. In test [2], the “Absolute mRNA transfection efficiency” value was 0.2%.
For `CCCCCCCCCCCCCCSc1nc(NCCN(CC)CC)nc(SCCCCCCCCCCCCCC)n1` [Compound S14S14D7], the “Absolute DNA transfection efficiency” value in test [1] amounted to 2.3%. For the same compound, in test [2], the “Absolute mRNA transfection efficiency” value is listed as 2.8%.
`CCCCCCCCCCCCCCSc1nc(NCCCN2CCOCC2)nc(SCCCCCCCCCCCCCC)n1` [Compound S14S14D8]: the “Absolute DNA transfection efficiency” value in test [1] is on record as 0.0%. Moreover, the “Absolute mRNA transfection efficiency” value in test [2] was 0.0%.
`CCCCCCCCCCCCCCSc1nc(NCCCN2CCN(C)CC2)nc(SCCCCCCCCCCCCCC)n1` [Compound S14S14D9]: in test [1], the “Absolute DNA transfection efficiency” value was 0.0%. Besides, the “Absolute mRNA transfection efficiency” value in test [2] came out at 0.0%.
As to `CCCCCCCCCCCCCCSc1nc(NCC2CCN(C)CC2)nc(SCCCCCCCCCCCCCC)n1` [Compound S14S14D10], the “Absolute DNA transfection efficiency” value in test [1] was determined as 0.9%. For the same compound, the “Absolute mRNA transfection efficiency” value in test [2] was 1.5%.
As for `CCCCCCCCCCCCCCCSc1nc(NCCN(C)C)nc(SCCCCCCCCCCCCCC)n1` [Compound S14S15D1], the “Absolute DNA transfection efficiency” value in test [1] turned out to be 0.1%. Also, the “Absolute mRNA transfection efficiency” value in test [2] was 0.0%.
Consider `CCCCCCCCCCCCCCCSc1nc(NCCN2CCOCC2)nc(SCCCCCCCCCCCCCC)n1` [Compound S14S15D2], for which the “Absolute DNA transfection efficiency” value in test [1] stood at 0.1%. For the same compound, the “Absolute mRNA transfection efficiency” value in test [2] amounted to 0.0%.
For `CCCCCCCCCCCCCCCSc1nc(NCCN2CCCC2)nc(SCCCCCCCCCCCCCC)n1` [Compound S14S15D3], the “Absolute DNA transfection efficiency” value in test [1] is on record as 0.3%. The “Absolute mRNA transfection efficiency” value in test [2] is 0.0%.
As for `CCCCCCCCCCCCCCCSc1nc(NCCN2CCCCC2)nc(SCCCCCCCCCCCCCC)n1` [Compound S14S15D4], the “Absolute DNA transfection efficiency” value in test [1] came out at 0.7%. Further, in test [2], the “Absolute mRNA transfection efficiency” value is listed as 0.1%.
Consider `CCCCCCCCCCCCCCCSc1nc(NCCN2CCN(C)CC2)nc(SCCCCCCCCCCCCCC)n1` [Compound S14S15D5], for which, in test [1], the “Absolute DNA transfection efficiency” value was determined as 0.0%. Also, in test [2], the “Absolute mRNA transfection efficiency” value came to 0.0%.
Turning to `CCCCCCCCCCCCCCCSc1nc(NCCCN(C)C)nc(SCCCCCCCCCCCCCC)n1` [Compound S14S15D6], in test [1], the “Absolute DNA transfection efficiency” value came to 0.2%. Also, the “Absolute mRNA transfection efficiency” value in test [2] came to 0.1%.
`CCCCCCCCCCCCCCCSc1nc(NCCN(CC)CC)nc(SCCCCCCCCCCCCCC)n1` [Compound S14S15D7]: the “Absolute DNA transfection efficiency” value in test [1] worked out at 0.6%. Besides, the “Absolute mRNA transfection efficiency” value in test [2] was 0.4%.
Take `CCCCCCCCCCCCCCCSc1nc(NCCCN2CCOCC2)nc(SCCCCCCCCCCCCCC)n1` [Compound S14S15D8]: the “Absolute DNA transfection efficiency” value in test [1] amounted to 0.0%. In addition, in test [2], the “Absolute mRNA transfection efficiency” value is listed as 0.0%.
For `CCCCCCCCCCCCCCCSc1nc(NCCCN2CCN(C)CC2)nc(SCCCCCCCCCCCCCC)n1` [Compound S14S15D9], the “Absolute DNA transfection efficiency” value in test [1] was determined as 0.0%. Moreover, the “Absolute mRNA transfection efficiency” value in test [2] was 0.0%.
Turning to `CCCCCCCCCCCCCCCSc1nc(NCC2CCN(C)CC2)nc(SCCCCCCCCCCCCCC)n1` [Compound S14S15D10], the “Absolute DNA transfection efficiency” value in test [1] worked out at 0.3%. For the same compound, in test [2], the “Absolute mRNA transfection efficiency” value was determined as 0.5%.
On to `CCCCCCCCCCCCCCCCSc1nc(NCCN(C)C)nc(SCCCCCCCCCCCCCC)n1` [Compound S14S16D1], for which the “Absolute DNA transfection efficiency” value in test [1] was 0.0%. For the same compound, in test [2], the “Absolute mRNA transfection efficiency” value was 0.0%.
In the case of `CCCCCCCCCCCCCCCCSc1nc(NCCN2CCOCC2)nc(SCCCCCCCCCCCCCC)n1` [Compound S14S16D2], the “Absolute DNA transfection efficiency” value in test [1] is on record as 0.0%. Further, the “Absolute mRNA transfection efficiency” value in test [2] was found to be 0.0%.
`CCCCCCCCCCCCCCCCSc1nc(NCCN2CCCC2)nc(SCCCCCCCCCCCCCC)n1` [Compound S14S16D3]: the “Absolute DNA transfection efficiency” value in test [1] turned out to be 0.4%. Further, the “Absolute mRNA transfection efficiency” value in test [2] is reported as 0.2%.
For `CCCCCCCCCCCCCCCCSc1nc(NCCN2CCCCC2)nc(SCCCCCCCCCCCCCC)n1` [Compound S14S16D4], the “Absolute DNA transfection efficiency” value in test [1] was found to be 0.6%. Besides, the “Absolute mRNA transfection efficiency” value in test [2] was determined as 0.0%.
`CCCCCCCCCCCCCCCCSc1nc(NCCN2CCN(C)CC2)nc(SCCCCCCCCCCCCCC)n1` [Compound S14S16D5]: the “Absolute DNA transfection efficiency” value in test [1] came to 0.1%. Also, the “Absolute mRNA transfection efficiency” value in test [2] was 0.2%.
Turning to `CCCCCCCCCCCCCCCCSc1nc(NCCCN(C)C)nc(SCCCCCCCCCCCCCC)n1` [Compound S14S16D6], the “Absolute DNA transfection efficiency” value in test [1] turned out to be 1.2%. Besides, the “Absolute mRNA transfection efficiency” value in test [2] turned out to be 0.9%.
